Test system: Pseudomonas aeruginosa ATCC 9027
Assay: Challenge Test for the Evaluation of Preservative Capacity of Liquid Detergent and Personal Products
Assay type: cell-based
Settings: aqueous formula, each active component 5%, pH 7.6
Experimental: Experiments were conducted to evaluate antimicrobial activity against Pseudomonas aeruginosa of aqueous formulas containing sodium hydroxyethyl sulfonate, sodium cocoyl glycinate and combinations of these two materials. Samples were prepared at room temperature by mixing together sodium cocoyl glycinate and/or sodium hydroxyethyl sulfonate and water. The pH was adjusted by addition of aqueous hydrochloric acid to reach a 7.6 value. Amounts of each of the active components was 5%. Challenge Test for the Evaluation of Preservative Capacity of Liquid Detergent and Personal Products Pseudomonas aeruginosa ATCC 9027 obtained from American Type Culture Collection, Manassas, Va. 20108. 20 grams of product were inoculated with 0.2 ml of the microorganism at a level of 1.06E+07 or Log 7. A single inoculation was performed. At 2 day, 7 day, 14 day and 21 day time points after inoculation a 1 gram sample was aseptically removed into a neutralizing fluid (TAT Broth) and plated using Letheen Agar. The plates were incubated at 30° C. for 7 days. At the end of the incubation time the plates were removed and examined for microbial growth. The microorganisms recovered were converted into Log10 and compared to initial inoculum count which then determined the Log Reduction. Logarithmic functions are the inverse of exponential functions. Log reduction was determined by the initial inoculum count minus the counts at each sampling time point.

[1] = 2 day after single inoculation (1.06E+07, Log 7)
[2] = 7 day after single inoculation (1.06E+07, Log 7)
[3] = 14 day after single inoculation (1.06E+07, Log 7)
[4] = 21 day after single inoculation (1.06E+07, Log 7)

| Compound | Log Reduction Value [1] | Log Reduction Value [2] | Log Reduction Value [3] | Log Reduction Value [4] |
| --- | --- | --- | --- | --- |
| O=S(=O)([O-])CCO.[Na+] [Sodium Hydroxyethyl Sulfonate, sodium hydroxyethyl sulfonate] | 1.1 | 0.9 | 0.8 | 0.5 |
| sodium cocoyl glycinate | 1.1 | 1.1 | 0.8 | 0.2 |
